Reference: ChEMBL document CHEMBL3414497, “Overcoming mutagenicity and ion channel activity: optimization of selective spleen tyrosine kinase inhibitors” (J Med Chem, 2015)
Each block holds one molecule with its values, some of them ahead of it.

Experiments:
Rattus norvegicus = species: Rattus norvegicus; conditions: in vivo, po
in vivo [1] = conditions: rat, plasma, po
in vivo [2] = conditions: rat, po
in vivo [3] = conditions: rat, po; remark: listed apart in the source
[4] = Cmax in collagen-induced Lewis rat arthritic model at 3 mg/kg, po qd; type: ADME, organism-based; parameters: dose 3 mg/kg, route oral; conditions: in vivo
Plasma [5] = experiment: Plasma concentration in collagen-induced Lewis rat arthritic model at 1 mg/kg, po qd measured immediately post compound dosing; type: ADME, organism-based; parameters: dose 1 mg/kg, route oral; conditions: in vivo
[6] = Plasma concentration in collagen-induced Lewis rat arthritic model at 1 mg/kg, po qd measured at 2 hrs; type: ADME, organism-based; parameters: dose 1 mg/kg, route oral
[7] = Plasma concentration in collagen-induced Lewis rat arthritic model at 1 mg/kg, po qd measured at 4 hrs; type: ADME, organism-based; parameters: dose 1 mg/kg, route oral
[8] = Plasma concentration in collagen-induced Lewis rat arthritic model at 1 mg/kg, po qd measured at 8 hrs; type: ADME, organism-based; parameters: dose 1 mg/kg, route oral
[9] = Plasma concentration in collagen-induced Lewis rat arthritic model at 1 mg/kg, po qd measured at 24 hrs; type: ADME, organism-based; parameters: dose 1 mg/kg, route oral
Plasma [10] = experiment: Plasma concentration in collagen-induced Lewis rat arthritic model at 3 mg/kg, po qd measured immediately post compound dosing; type: ADME, organism-based; parameters: dose 3 mg/kg, route oral; conditions: in vivo
[11] = Plasma concentration in collagen-induced Lewis rat arthritic model at 3 mg/kg, po qd measured at 2 hrs; type: ADME, organism-based; parameters: dose 3 mg/kg, route oral
[12] = Plasma concentration in collagen-induced Lewis rat arthritic model at 3 mg/kg, po qd measured at 4 hrs; type: ADME, organism-based; parameters: dose 3 mg/kg, route oral
[13] = Plasma concentration in collagen-induced Lewis rat arthritic model at 3 mg/kg, po qd measured at 8 hrs; type: ADME, organism-based; parameters: dose 3 mg/kg, route oral
[14] = Plasma concentration in collagen-induced Lewis rat arthritic model at 3 mg/kg, po qd measured at 24 hrs; type: ADME, organism-based; parameters: dose 3 mg/kg, route oral
Plasma [15] = experiment: Plasma concentration in collagen-induced Lewis rat arthritic model at 10 mg/kg, po qd measured immediately post compound dosing; type: ADME, organism-based; parameters: dose 10 mg/kg, route oral; conditions: in vivo
[16] = Plasma concentration in collagen-induced Lewis rat arthritic model at 10 mg/kg, po qd measured at 2 hrs; type: ADME, organism-based; parameters: dose 10 mg/kg, route oral
[17] = Plasma concentration in collagen-induced Lewis rat arthritic model at 10 mg/kg, po qd measured at 4 hrs; type: ADME, organism-based; parameters: dose 10 mg/kg, route oral
[18] = Plasma concentration in collagen-induced Lewis rat arthritic model at 10 mg/kg, po qd measured at 8 hrs; type: ADME, organism-based; parameters: dose 10 mg/kg, route oral
[19] = Plasma concentration in collagen-induced Lewis rat arthritic model at 10 mg/kg, po qd measured at 24 hrs; type: ADME, organism-based; parameters: dose 10 mg/kg, route oral
physchem [20] = conditions: octanol/buffer
physchem [21] = experiment: physchem

CL free (Rattus norvegicus): 100 mL/min/kg
CL/F (in vivo [1]): 25 mL/min/kg
half-life (in vivo [2]): 3.5 h
bioavailability (in vivo [3]): 29%
SMILES: COc1cccc2[nH]c(-c3nc(N[C@@H]4CCOC[C@@H]4N)cnc3C(N)=O)cc12

Cmax [4]: 200 nM
concentration (Plasma [5]): 5 nM
concentration at 2 h [6]: 40 nM
concentration at 4 h [7]: 100 nM
concentration at 8 h [8]: 90 nM
concentration at 24 h [9]: 5 nM
concentration (Plasma [10]): 7 nM
concentration at 2 h [11]: 60 nM
concentration at 4 h [12]: 200 nM
concentration at 8 h [13]: 100 nM
concentration at 24 h [14]: 7 nM
concentration (Plasma [15]): 10 nM
concentration at 2 h [16]: 200 nM
concentration at 4 h [17]: 500 nM
concentration at 8 h [18]: 500 nM
concentration at 24 h [19]: 10 nM
CL free (Rattus norvegicus): 710 mL/min/kg
CL/F (in vivo [1]): 33 mL/min/kg
half-life (in vivo [2]): 2.7 h
bioavailability (in vivo [3]): 19%
logD at 500 µM (physchem [20]): 2.1
pKa at 100 µM (physchem [21]): 9
SMILES: Cc1cc(C)nc(Nc2cc(N[C@@H]3CCCC[C@@H]3N)cnc2C(N)=O)c1

CL free (Rattus norvegicus): 255 mL/min/kg
CL/F (in vivo [1]): 44 mL/min/kg
half-life (in vivo [2]): 2.8 h
SMILES: NC(=O)c1ncc(N[C@@H]2CCCC[C@@H]2N)nc1-c1cc2ccccc2[nH]1
